Test results published in patent US6355799B1, “Substituted benzene compounds, process for their preparation, and herbicidal and defoliant compositions containing them” (ISK Americas Incorporated, priority 1997, dated 2002).

Assays:
Format in all cases: in vivo
[1] = test system: redroot pigweed (Amaranthus retroflexus, AMARE); experiment: Pre-emerge test, greenhouse herbicide activity screening; conditions: rated 14 days after application, 0 = no damage, 100 = complete death
Method in brief: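 Compounds in acetone were track-sprayed at 15-1000 g ai/ha (187 l/ha) on sandy loam pots: pre-emerge one day after seeding, post-emerge at 2-3 leaf stage with 0.25% v/v non-ionic surfactant. Phytotoxicity was rated 14 days later on a 0 (no damage) to 100 (complete death) scale.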

[2] = test system: field corn (Zea mays L., var. Dekalb 535, CORN); experiment: Post-emerge test, crop safety; conditions: post-emerge, 14 days after application, rating scale 0-100
Method in brief: (§1)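 Compounds in acetone were track-sprayed at 187 l/ha, 15–1000 g ai/ha, onto sandy loam pots. Pre-emerge seeds were sown one day before spraying, with surface watering afterwards. Post-emerge plants were at the 2–3 leaf stage and sprayed with 0.25% v/v non-ionic surfactant. Injury was rated 0–100 at 14 days.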

[3] = test system: upland rice (Oryza sp., var. Tebonnet, RICE); experiment: Post-emerge test, crop safety; conditions: post-emerge, 14 days after application, rating scale 0-100
Method in brief: as §1

[4] = test system: barnyardgrass (Echinochloa crus-galli, ECHCG); experiment: Pre-emerge test, greenhouse herbicide activity screening; conditions: rated 14 days after application, 0 = no damage, 100 = complete death
Method in brief: as §1

[5] = test system: lambsquarters (Chenopodium album, CHEAL); experiment: as above; conditions: rated 14 days after application, 0 = no damage, 100 = complete death
Method in brief: as §1

[6] = test system: green foxtail (Setaria viridis, SETVI); experiment: as above; conditions: rated 14 days after application, 0 = no damage, 100 = complete death
Method in brief: as §1

[7] = test system: large crabgrass (Digitaria sanguinalis, DIGSA); experiment: as above; conditions: rated 14 days after application, 0 = no damage, 100 = complete death
Method in brief: as §1

[8] = test system: sicklepod (Cassia obtusifolia, CASOB); experiment: as above; conditions: rated 14 days after application, 0 = no damage, 100 = complete death
Method in brief: as §1

[9] = test system: velvetleaf (Abutilon theophrasti, ABUTH); experiment: as above; conditions: rated 14 days after application, 0 = no damage, 100 = complete death
Method in brief: as §1

[10] = test system: ivyleaf morningglory (Ipomoea hederacea, IPOHE); experiment: as above; conditions: rated 14 days after application, 0 = no damage, 100 = complete death
Method in brief: as §1

[11] = test system: johnsongrass (Sorghum halepense, SORHA); experiment: as above; conditions: rated 14 days after application, 0 = no damage, 100 = complete death
Method in brief: as §1

[12] = test system: field corn (Zea mays L., var. Dekalb 535, CORN); experiment: Pre-emerge test, crop safety; conditions: rated 14 days after application, 0 = no damage, 100 = complete death
Method in brief: (§2)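 Plants grown in 10 cm pots of sandy loam mix received acetone-dissolved compounds through a moving flat-fan nozzle. Doses ranged from 15 to 1000 g ai/ha. Pre-emerge pots were seeded one day earlier, post-emerge pots 8–21 days earlier. Fourteen days on, each pot was graded 0–100 for damage.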

[13] = test system: upland rice (Oryza sp., var. Tebonnet, RICE); experiment: Pre-emerge test, crop safety; conditions: rated 14 days after application, 0 = no damage, 100 = complete death
Method in brief: as §2

[14] = test system: barnyardgrass (Echinochloa crus-galli, ECHCG); experiment: Post-emerge test, greenhouse herbicide activity screening; conditions: post-emerge, 14 days after application, rating scale 0-100
Method in brief: (§3)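 Visual ratings on a 0-100 scale (0 no damage, 100 all plants dead) were taken at 14 days after treatment. Rates of 15-1000 g ai/ha in acetone, 187 l/ha, were sprayed onto soil one day after planting (pre-emerge) or onto 2-3 leaf plants with 0.25% v/v surfactant (post-emerge).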

[15] = test system: green foxtail (Setaria viridis, SETVI); experiment: as above; conditions: post-emerge, 14 days after application, rating scale 0-100
Method in brief: as §3

[16] = test system: large crabgrass (Digitaria sanguinalis, DIGSA); experiment: as above; conditions: post-emerge, 14 days after application, rating scale 0-100
Method in brief: as §3

[17] = test system: sicklepod (Cassia obtusifolia, CASOB); experiment: as above; conditions: post-emerge, 14 days after application, rating scale 0-100
Method in brief: as §3

[18] = test system: velvetleaf (Abutilon theophrasti, ABUTH); experiment: as above; conditions: post-emerge, 14 days after application, rating scale 0-100
Method in brief: as §3

[19] = test system: ivyleaf morningglory (Ipomoea hederacea, IPOHE); experiment: as above; conditions: post-emerge, 14 days after application, rating scale 0-100
Method in brief: as §3

[20] = test system: redroot pigweed (Amaranthus retroflexus, AMARE); experiment: as above; conditions: post-emerge, 14 days after application, rating scale 0-100
Method in brief: as §3

[21] = test system: johnsongrass (Sorghum halepense, SORHA); experiment: as above; conditions: post-emerge, 14 days after application, rating scale 0-100
Method in brief: as §3

Q: Which “Pre-emerge Herbicidal Activity, phytotoxicity rating (0-100), AMARE” value ([1]; 63 g ai/ha) does the source give for COc1c(Cl)cc(F)c(-n2c(=O)cc(C(F)(F)F)n(C)c2=O)c1NC(=O)COC(C)=O [2-117] here?
A: The value was 90.

Q: What about the “Pre-emerge Herbicidal Activity, phytotoxicity rating (0-100), AMARE” value ([1]; 250 g ai/ha) of the same compound?
A: Its value is 100.

Q: And the “phytotoxicity rating CORN” value ([2]; 63 g ai/ha)?
A: Its value is 5.

Q: And the “phytotoxicity rating CORN” value ([2]; 250 g ai/ha)?
A: Its value is 20.

Q: And the “phytotoxicity rating RICE” value ([3]; 63 g ai/ha)?
A: Its value is 10.

Q: And the “phytotoxicity rating RICE” value ([3]; 250 g ai/ha)?
A: Its value is 40.

Q: What about the “Pre-emerge Herbicidal Activity, phytotoxicity rating (0-100), ECHCG” value ([4]; 63 g ai/ha) of the same compound?
A: Its value is 10.

Q: And the “Pre-emerge Herbicidal Activity, phytotoxicity rating (0-100), ECHCG” value ([4]; 250 g ai/ha)?
A: Its value is 70.

Q: And the “Pre-emerge Herbicidal Activity, phytotoxicity rating (0-100), CHEAL” value ([5]; 63 g ai/ha)?
A: The value was 100.

Q: What about the “Pre-emerge Herbicidal Activity, phytotoxicity rating (0-100), CHEAL” value ([5]; 250 g ai/ha) of the same compound?
A: The value was 100.

Q: And the “Pre-emerge Herbicidal Activity, phytotoxicity rating (0-100), SETVI” value ([6]; 63 g ai/ha)?
A: Its value is 30.

Q: What about the “Pre-emerge Herbicidal Activity, phytotoxicity rating (0-100), SETVI” value ([6]; 250 g ai/ha) of the same compound?
A: Its value is 100.

Q: And the “Pre-emerge Herbicidal Activity, phytotoxicity rating (0-100), DIGSA” value ([7]; 63 g ai/ha)?
A: The value was 30.

Q: What about the “Pre-emerge Herbicidal Activity, phytotoxicity rating (0-100), DIGSA” value ([7]; 250 g ai/ha) of the same compound?
A: Its value is 90.

Q: And the “Pre-emerge Herbicidal Activity, phytotoxicity rating (0-100), CASOB” value ([8]; 63 g ai/ha)?
A: Its value is 80.

Q: And the “Pre-emerge Herbicidal Activity, phytotoxicity rating (0-100), CASOB” value ([8]; 250 g ai/ha)?
A: The value was 100.

Q: What about the “Pre-emerge Herbicidal Activity, phytotoxicity rating (0-100), ABUTH” value ([9]; 63 g ai/ha) of the same compound?
A: Its value is 100.

Q: What about the “Pre-emerge Herbicidal Activity, phytotoxicity rating (0-100), ABUTH” value ([9]; 250 g ai/ha) of the same compound?
A: The value was 100.

Q: What about the “Pre-emerge Herbicidal Activity, phytotoxicity rating (0-100), IPOHE” value ([10]; 63 g ai/ha) of the same compound?
A: The value was 100.

Q: What about the “Pre-emerge Herbicidal Activity, phytotoxicity rating (0-100), IPOHE” value ([10]; 250 g ai/ha) of the same compound?
A: Its value is 100.

Q: What about the “Pre-emerge Herbicidal Activity, phytotoxicity rating (0-100), SORHA” value ([11]; 63 g ai/ha) of the same compound?
A: The value was 10.

Q: And the “Pre-emerge Herbicidal Activity, phytotoxicity rating (0-100), SORHA” value ([11]; 250 g ai/ha)?
A: Its value is 60.

Q: And the “Pre-emerge phytotoxicity rating (0-100), crop damage, CORN” value ([12]; 63 g ai/ha)?
A: The value was 10.

Q: And the “Pre-emerge phytotoxicity rating (0-100), crop damage, CORN” value ([12]; 250 g ai/ha)?
A: Its value is 35.

Q: What about the “Pre-emerge phytotoxicity rating (0-100), crop damage, RICE” value ([13]; 63 g ai/ha) of the same compound?
A: The value was 30.

Q: And the “Pre-emerge phytotoxicity rating (0-100), crop damage, RICE” value ([13]; 250 g ai/ha)?
A: The value was 90.

Q: What about the “phytotoxicity rating ECHCG” value ([14]; 63 g ai/ha) of the same compound?
A: Its value is 0.

Q: And the “phytotoxicity rating ECHCG” value ([14]; 250 g ai/ha)?
A: The value was 0.

Q: And the “phytotoxicity rating SETVI” value ([15]; 63 g ai/ha)?
A: The value was 0.

Q: And the “phytotoxicity rating SETVI” value ([15]; 250 g ai/ha)?
A: Its value is 0.

Q: And the “phytotoxicity rating DIGSA” value ([16]; 63 g ai/ha)?
A: The value was 0.

Q: And the “phytotoxicity rating DIGSA” value ([16]; 250 g ai/ha)?
A: Its value is 0.

Q: And the “phytotoxicity rating CASOB” value ([17]; 63 g ai/ha)?
A: Its value is 40.

Q: And the “phytotoxicity rating CASOB” value ([17]; 250 g ai/ha)?
A: Its value is 95.

Q: What about the “phytotoxicity rating ABUTH” value ([18]; 63 g ai/ha) of the same compound?
A: Its value is 80.

Q: And the “phytotoxicity rating ABUTH” value ([18]; 250 g ai/ha)?
A: Its value is 100.

Q: What about the “phytotoxicity rating IPOHE” value ([19]; 63 g ai/ha) of the same compound?
A: Its value is 90.

Q: What about the “phytotoxicity rating IPOHE” value ([19]; 250 g ai/ha) of the same compound?
A: Its value is 100.

Q: And the “phytotoxicity rating AMARE” value ([20]; 63 g ai/ha)?
A: The value was 10.

Q: What about the “phytotoxicity rating AMARE” value ([20]; 250 g ai/ha) of the same compound?
A: Its value is 70.

Q: And the “phytotoxicity rating SORHA” value ([21]; 63 g ai/ha)?
A: The value was 0.

Q: And the “phytotoxicity rating SORHA” value ([21]; 250 g ai/ha)?
A: The value was 0.
